Data from patent publication US20200360352A1, “USE OF RIFAMYCIN-NITROIMIDAZOLE COUPLING MOLECULE” (priority 2019, published 2020).
Like-named read-outs stand apart in the source and are kept apart here.

Key:
Format in all cases: cell-based
Mycobacterium avium [1] = assay: MIC, micro broth dilution with resazurin readout; conditions: read-out: Minimum Inhibitory Concentration (MIC)
Mycobacterium abscessus [2] = assay: MIC, micro broth dilution with resazurin readout; conditions: Mycobacteroides abscessus, read-out: Minimum Inhibitory Concentration (MIC)
Mycobacterium kansasii [3] = assay: MIC, micro broth dilution with resazurin readout; conditions: read-out: Minimum Inhibitory Concentration (MIC)
Mycobacterium avium [4] = assay: MBC, plating of MIC wells and CFU count; conditions: read-out: Minimum Bactericidal Concentration (MBC)
Mycobacterium abscessus [5] = assay: MBC, plating of MIC wells and CFU count; conditions: Mycobacteroides abscessus, read-out: Minimum Bactericidal Concentration (MBC)
Mycobacterium kansasii [6] = assay: MBC, plating of MIC wells and CFU count; conditions: read-out: Minimum Bactericidal Concentration (MBC)
[7] = test system: Mycobacterium intracellulare; assay: MIC, micro broth dilution with resazurin readout; conditions: MH Culture Medium, read-out: Minimum Inhibitory Concentration (MIC)
[8] = test system: Mycobacterium massiliense; assay: MIC, micro broth dilution with resazurin readout; conditions: Mycobacteroides abscessus, MH Culture Medium, read-out: Minimum Inhibitory Concentration (MIC)
Mycobacterium fortuitum = assay: MIC, micro broth dilution with resazurin readout; conditions: Mycolicibacterium fortuitum, MH Culture Medium, read-out: Minimum Inhibitory Concentration (MIC)
Mycodacterium chelonei = assay: MIC, micro broth dilution with resazurin readout; conditions: MH Culture Medium; Chelonei (standard strain); read-out: Minimum Inhibitory Concentration (MIC)
[9] = 7H9 Broth, Mycobacterium avium Rough
[10] = 7H9 Broth, Mycobacterium avium Smooth
[11] = MH Broth, Mycobacterium avium Rough
[12] = MH Broth, Mycobacterium avium Smooth
[13] = MH Culture Medium, Avium (standard strain)
[14] = MH Culture Medium, clinically isolated strain Avium (S31)
[15] = MH Culture Medium, clinically isolated strain Avium (S123)
[16] = MH Culture Medium, clinically isolated strain Avium (S559)
[17] = MH Culture Medium, clinically isolated strain Avium (S568)
[18] = MH Culture Medium, clinically isolated strain Avium (S577)
[19] = MH Culture Medium, clinically isolated strain Avium (S597)
[20] = MH Culture Medium, clinically isolated strain Avium (S602)
[21] = MH Culture Medium, Kansasii (standard strain)
[22] = MH Culture Medium, clinically isolated strain Kansasii (S9)
[23] = MH Culture Medium, clinically isolated strain Kansasii (S199)
[24] = MH Culture Medium, clinically isolated strain Kansasii (S520)
[25] = MH Culture Medium, clinically isolated strain Kansasii (S609)
[26] = Intracellulare (standard strain)
[27] = clinically isolated strain Intracellulare (S90)
[28] = clinically isolated strain Intracellulare (S261)
[29] = clinically isolated strain Intracellulare (S269)
[30] = clinically isolated strain Intracellulare (S290)
[31] = clinically isolated strain Intracellulare (S291)
[32] = clinically isolated strain Intracellulare (S298)
[33] = clinically isolated strain Intracellulare (S442)
[34] = clinically isolated strain Intracellulare (S541)
[35] = clinically isolated strain Intracellulare (S623)
[36] = clinically isolated strain Intracellulare (ZPS)
[37] = clinically isolated strain Massiliense (D10)
[38] = clinically isolated strain Massiliense (D14)
[39] = clinically isolated strain Massiliense (D18)
[40] = clinically isolated strain Fortuitum (S103)
[41] = clinically isolated strain Fortuitum (S111)

NCC[C@H](O)C(=O)N[C@@H]1C[C@H](N)[C@@H](O[C@H]2O[C@H](CN)[C@@H](O)[C@H](O)[C@H]2O)[C@H](O)[C@H]1O[C@H]1O[C@H](CO)[C@@H](O)[C@H](N)[C@H]1O [Amikacin]
64 µg/mL: MBC (Mycobacterium kansasii [6]; 7H9 Broth)
32 µg/mL: MIC (Mycobacterium abscessus [2]; 7H9 Broth)
> 64 µg/mL: MIC (Mycobacterium avium [1]; [9]) | MBC (Mycobacterium avium [4]; [9]) | MBC (Mycobacterium avium [4]; [10]) | MBC (Mycobacterium avium [4]; [11]) | MBC (Mycobacterium avium [4]; [12]) | MBC (Mycobacterium abscessus [5]; 7H9 Broth) | MBC (Mycobacterium abscessus [5]; MH Broth) | MBC (Mycobacterium kansasii [6]; MH Broth)
16 µg/mL: MIC (Mycobacterium abscessus [2]; MH Broth) | MIC (Mycobacterium kansasii [3]; 7H9 Broth)
2 µg/mL: MIC (Mycobacterium avium [1]; [10]) | MIC (Mycobacterium avium [1]; [11]) | MIC (Mycobacterium avium [1]; [12])
1 µg/mL: MIC (Mycobacterium kansasii [3]; MH Broth)

O=C(O)c1cn(C2CC2)c2cc(N3CCNCC3)c(F)cc2c1=O [Ciprofloxacin]
16 µg/mL: MIC (Mycobacterium abscessus [2]; 7H9 Broth)
> 64 µg/mL: MIC (Mycobacterium avium [1]; [10]) | MIC (Mycobacterium avium [1]; [12]) | MIC (Mycobacterium abscessus [2]; MH Broth) | MIC (Mycobacterium kansasii [3]; 7H9 Broth) | MIC (Mycobacterium kansasii [3]; MH Broth) | MBC (Mycobacterium avium [4]; [10]) | MBC (Mycobacterium avium [4]; [12]) | MBC (Mycobacterium abscessus [5]; 7H9 Broth) | MBC (Mycobacterium abscessus [5]; MH Broth) | MBC (Mycobacterium kansasii [6]; 7H9 Broth) | MBC (Mycobacterium kansasii [6]; MH Broth)

CC[C@H]1OC(=O)[C@H](C)[C@@H](O[C@H]2C[C@@](C)(OC)[C@@H](O)[C@H](C)O2)[C@H](C)[C@@H](O[C@@H]2O[C@H](C)C[C@H](N(C)C)[C@H]2O)[C@](C)(OC)C[C@@H](C)C(=O)[C@H](C)[C@@H](O)[C@]1(C)O [Clarithromycin]
4 µg/mL: MIC (Mycobacterium avium [1]; [17]) | MIC [7, 35]
0.5 µg/mL: MIC (Mycobacterium avium [1]; [15]) | MIC (Mycodacterium chelonei)
16 µg/mL: MIC (Mycobacterium abscessus [2]; 7H9 Broth)
64 µg/mL: MIC (Mycobacterium abscessus [2]; MH Broth) | MIC [7, 34] | MBC (Mycobacterium kansasii [6]; 7H9 Broth)
1 µg/mL: MIC (Mycobacterium avium [1]; [19]) | MIC (Mycobacterium avium [1]; [20]) | MIC [7, 27] | MIC [7, 28] | MIC [7, 29] | MIC [7, 30] | MIC [7, 31] | MIC [7, 36]
0.125 µg/mL: MIC (Mycobacterium avium [1]; [14]) | MIC (Mycobacterium kansasii [3]; [22]) | MIC (Mycobacterium kansasii [3]; [25])
> 64 µg/mL: MIC (Mycobacterium avium [1]; [9]) | MIC (Mycobacterium avium [1]; [11]) | MIC (Mycobacterium avium [1]; [12]) | MIC (Mycobacterium fortuitum; [40]) | MBC (Mycobacterium avium [4]; [9]) | MBC (Mycobacterium avium [4]; [10]) | MBC (Mycobacterium avium [4]; [11]) | MBC (Mycobacterium avium [4]; [12]) | MBC (Mycobacterium abscessus [5]; 7H9 Broth) | MBC (Mycobacterium abscessus [5]; MH Broth) | MBC (Mycobacterium kansasii [6]; MH Broth)
2 µg/mL: MIC (Mycobacterium kansasii [3]; 7H9 Broth) | MIC (Mycobacterium kansasii [3]; MH Broth) | MIC [7, 32] | MIC [7, 33] | MIC (Mycobacterium fortuitum; [41])
32 µg/mL: MIC (Mycobacterium avium [1]; [10]) | MIC (Mycobacterium fortuitum; Fortuitum (standard strain))
0.25 µg/mL: MIC (Mycobacterium avium [1]; [16]) | MIC (Mycobacterium avium [1]; [18]) | MIC [8, 37]
0.0625 µg/mL: MIC (Mycobacterium avium [1]; [13]) | MIC (Mycobacterium kansasii [3]; [21]) | MIC (Mycobacterium kansasii [3]; [23]) | MIC (Mycobacterium kansasii [3]; [24]) | MIC [7, 26] | MIC [8, 38] | MIC [8, 39]

COc1c(N2C[C@@H]3CCCN[C@@H]3C2)c(F)cc2c(=O)c(C(=O)O)cn(C3CC3)c12 [Moxifloxacin]
4 µg/mL: MIC (Mycobacterium avium [1]; [20]) | MIC (Mycodacterium chelonei)
64 µg/mL: MIC [7, 34]
0.5 µg/mL: MIC (Mycobacterium avium [1]; [15]) | MIC (Mycobacterium avium [1]; [17]) | MIC (Mycobacterium avium [1]; [18]) | MIC (Mycobacterium fortuitum; [41])
1 µg/mL: MIC (Mycobacterium avium [1]; [13]) | MIC (Mycobacterium avium [1]; [16]) | MIC [7, 31] | MIC [7, 36] | MIC (Mycobacterium fortuitum; Fortuitum (standard strain)) | MIC (Mycobacterium fortuitum; [40])
8 µg/mL: MIC (Mycobacterium avium [1]; [14]) | MIC [8, 39]
0.25 µg/mL: MIC [7, 26]
0.0625 µg/mL: MIC (Mycobacterium kansasii [3]; [21]) | MIC (Mycobacterium kansasii [3]; [22]) | MIC (Mycobacterium kansasii [3]; [23]) | MIC (Mycobacterium kansasii [3]; [24]) | MIC (Mycobacterium kansasii [3]; [25])
2 µg/mL: MIC (Mycobacterium avium [1]; [19]) | MIC [7, 27] | MIC [7, 28] | MIC [7, 29] | MIC [7, 30] | MIC [7, 32] | MIC [7, 33] | MIC [7, 35]
32 µg/mL: MIC [8, 37] | MIC [8, 38]

CO[C@H]1/C=C/O[C@@]2(C)Oc3c(C)c(O)c4c(c3C2=O)C2=NC3(CCN(CC(C)C)CC3)NC2=C(NC(=O)/C(C)=C\C=C\[C@H](C)[C@H](O)[C@@H](C)[C@@H](O)[C@@H](C)[C@H](OC(C)=O)[C@@H]1C)C4=O [Rifabutin]
32 µg/mL: MIC (Mycobacterium fortuitum; [40])
0.25 µg/mL: MIC [7, 28] | MIC [7, 35]
64 µg/mL: MIC [8, 38] | MIC [8, 39] | MIC (Mycodacterium chelonei)
> 64 µg/mL: MIC [8, 37]
0.0625 µg/mL: MIC (Mycobacterium avium [1]; [13]) | MIC (Mycobacterium avium [1]; [14]) | MIC (Mycobacterium avium [1]; [15]) | MIC (Mycobacterium avium [1]; [16]) | MIC (Mycobacterium avium [1]; [17]) | MIC (Mycobacterium avium [1]; [18]) | MIC (Mycobacterium avium [1]; [19]) | MIC (Mycobacterium avium [1]; [20]) | MIC (Mycobacterium kansasii [3]; [21]) | MIC (Mycobacterium kansasii [3]; [22]) | MIC (Mycobacterium kansasii [3]; [23]) | MIC (Mycobacterium kansasii [3]; [24]) | MIC (Mycobacterium kansasii [3]; [25]) | MIC [7, 26] | MIC [7, 29] | MIC [7, 30] | MIC [7, 31] | MIC [7, 33] | MIC [7, 36]
0.125 µg/mL: MIC [7, 27] | MIC [7, 34]
0.5 µg/mL: MIC [7, 32]
4 µg/mL: MIC (Mycobacterium fortuitum; Fortuitum (standard strain)) | MIC (Mycobacterium fortuitum; [41])
